Measured values: patent publication US20220226335A1, “Non-Peptidic Heterocycle-Containing Compounds for the Treatment of Alzheimer?s Disease” (The Governors of the University of Alberta, priority 2019, published 2022)
Read-outs that look alike come from different tables or passages of the source. Where no end group is shown, it is not given here.

Legend:
[1] = system: hippocampus of Alzheimer's disease mice (TgCRND8); conditions: Kimura et al., 2012; 2016; cited from earlier work
[2] = system: neurons; conditions: Jhamandas et al., 2004; 2011; 2012; cited from earlier work
[3] = system: Aβ plaques; assay: Aβ plaque load (FIG. 8); format: in vivo
[4] = system: brain hippocampal slices; assay: hippocampal long term potentiation (LTP) electrophysiology, slices from wild type mice; parameters: species or system mouse; conditions: for effect on human amylin-induced depression/reduction of LTP: hippocampal slices, Compounds 3 and 23 at 1 μM
Source text: Hippocampal long term potentiation (LTP) electrophysiology experiments: an in vitro cellular surrogate for memory. Brains were quickly removed from mice following decapitation, placed in a cold artificial cerebral spinal fluid (aCSF) on a vibratome chamber and transverse sections cut through the hippocampus. The aCSF contained (in mM) 124 NaCl, 3 KCl, 2.4 CaCl2), 2 MgCl2, 1.25 NaH2PO4, 26 NaHCO3 and 10 D-glucose, and was equilibrated with 95% O2 and 5% CO2. Hippocampal slices ([…]) were maintained in aCSF-filled holding chamber at room temperature for at least 1 hour and individually transferred to the submerged glass bottom recording chamber, which was constantly perfused with aCSF (2 mL/min) at 30° C. Field excitatory postsynaptic potential (fEPSP) was recorded with a metallic (Pt/Ir) electrode (FHC, Bowdoin, Me.) from the stratum radiatum layer of Cornu ammonis 1 region of the hippocampus (CA1) area, and the Schaffer collateral afferents were stimulated with 100-μs test pulses via a bipolar cluster electrode (FHC) (Kimura et al., 2012, Kimura et al. 2016). To evaluate basal synaptic transmission, we applied different stimulation strengths (75 μA to 300 μA in steps of 25 μA) and plotted the amplitudes of presynaptic fiber volleys versus the corresponding fEPSP slopes to compare the slope of input/output (I/O) curves of fEPSP. For long-term potentiation (LTP) experiments, the stimulus strength was set to elicit 40-50% of the maximum fEPSP amplitude and test pulses were delivered to Schaffer collaterals once every 30 seconds. LTP was induced by 3-theta-burst stimulation (3-TBS) protocol (each burst consisted of 4 pulses at 100 Hz with a 200-ms inter-burst interval). Before 3-TBS or drug application, the responses were monitored for at least 10 minutes to ensure a stable baseline of fEPSP. […] Results were from various treatment groups were plotted as histograms with means±standard error (SE). […]

[5] = system: amylin receptor; assay: downstream phosphoERK response; format: cell-based; conditions: among Compounds 22-25
[6] = system: N2a cells; assay: Live/Dead cell assay; format: cell-based, mouse; conditions: data not shown
Procedure: Live/Dead cell assay. LIVE/DEAD™ Viability/Cytotoxicity Kit from ThermoFisher Scientific (Invitrogen) was used according to the instructions of the manufacturer. Briefly, The N2a cells were cultured in 8 well Lab-Tek chamber slide (ThermoFisher Scientific, Nunc). Cells were incubated either with or without the assay compounds, followed by treatment with Aβ1-42 for 24 h. At the end of treatment, the cells were washed three times with D-PBS, followed added live/dead reagent in D-PBS and culture for 30 min. Then fixed the cells with 4% paraformaldehyde for 10 min. Further washed the cells with PBS three times and sealed with coverslip. View the labeled cells under fluorescence microscope. Fluorescent microscopy images were acquired with an Axioplan-2 fluorescence microscope with AxioVision software (Carl Zeiss Ltd., Toronto, ON, Canada). Live/Dead cells were analyzed with Image J software (Schneider, C. A., Rasband, W. S., Eliceiri, K. W. “NIH Image to ImageJ: 25 years of image analysis”. Nature Methods 2012; 9:671-675).

[7] = system: hippocampal brain slices from transgenic AD mice (TgCRND8); assay: hippocampal LTP electrophysiology, slices from transgenic AD mice (TgCRND8); parameters: species or system mouse; conditions: compared with age-matched control/wild type mice
Source text: Hippocampal long term potentiation (LTP) electrophysiology experiments: an in vitro cellular surrogate for memory. Brains were quickly removed from mice following decapitation, placed in a cold artificial cerebral spinal fluid (aCSF) on a vibratome chamber and transverse sections cut through the hippocampus. The aCSF contained (in mM) 124 NaCl, 3 KCl, 2.4 CaCl2), 2 MgCl2, 1.25 NaH2PO4, 26 NaHCO3 and 10 D-glucose, and was equilibrated with 95% O2 and 5% CO2. Hippocampal slices ([…]) were maintained in aCSF-filled holding chamber at room temperature for at least 1 hour and individually transferred to the submerged glass bottom recording chamber, which was constantly perfused with aCSF (2 mL/min) at 30° C. Field excitatory postsynaptic potential (fEPSP) was recorded with a metallic (Pt/Ir) electrode (FHC, Bowdoin, Me.) from the stratum radiatum layer of Cornu ammonis 1 region of the hippocampus (CA1) area, and the Schaffer collateral afferents were stimulated with 100-μs test pulses via a bipolar cluster electrode (FHC) (Kimura et al., 2012, Kimura et al. 2016). […] Before 3-TBS or drug application, the responses were monitored for at least 10 minutes to ensure a stable baseline of fEPSP. […]

[8] = system: N2a (mouse) neuronal cells; assay: MTT cell death assay, N2a neuronal cells; format: cell-based; conditions: 10 μM Aβ1-42 for 24 hours
Procedure: (§1) MTT Cell Death Assay. The N2a (mouse) and SK-N-SH (human) neuronal cells were seeded to 5000 cells/well in a 96-well plate in DMEM medium, 10% FBS and incubated overnight. Cells in culture medium were incubated either with or without the assay compounds and Aβ1-42, 10 μM for 24-48 h. At the end of treatment, 20 μL of 5 mg/mL 3-(4,5-dimethylthiazol-2-yl)-2,5-diphenyltetrazolium bromide (MTT, Sigma) was added to each well and incubated at 37° C. for 3 h. Medium was removed, 100 μL of MTT solvent (isopropanol with 4 mM HCl) was added to each well, and the plates were incubated for 30 min at room temperature on a rotating shaker. Plates were analyzed on a microplate reader at a 562 nm wavelength.
(§2) FIGS. 2A and 2B. In mouse and human neuronal cell lines co-application of Compound 3 blunted human amylin and amyloid beta induced cytotoxicity. Neuronal cell lines N2a and SK-N-HS were treated with increasing concentrations of Compound 3 plus 10 μM Aβ1-42 or 5 μM hAmylin for 48 h.

[9] = biological target: T1, amylin receptor subtype 3 (AMY3) (Homo sapiens, UniProt O60896+P30988); assay: cAMP assay in amylin receptor subtype 3 expressing cells (AMY3-HEK), ELISA and in-cell Western; format: cell-based; conditions: for IC50: compound and human amylin applied simultaneously, read-out: IC50 required to block hAmylin induced cAMP increase
T1 construct: expressed in transfected cells
T1 sequence (P30988 25-474): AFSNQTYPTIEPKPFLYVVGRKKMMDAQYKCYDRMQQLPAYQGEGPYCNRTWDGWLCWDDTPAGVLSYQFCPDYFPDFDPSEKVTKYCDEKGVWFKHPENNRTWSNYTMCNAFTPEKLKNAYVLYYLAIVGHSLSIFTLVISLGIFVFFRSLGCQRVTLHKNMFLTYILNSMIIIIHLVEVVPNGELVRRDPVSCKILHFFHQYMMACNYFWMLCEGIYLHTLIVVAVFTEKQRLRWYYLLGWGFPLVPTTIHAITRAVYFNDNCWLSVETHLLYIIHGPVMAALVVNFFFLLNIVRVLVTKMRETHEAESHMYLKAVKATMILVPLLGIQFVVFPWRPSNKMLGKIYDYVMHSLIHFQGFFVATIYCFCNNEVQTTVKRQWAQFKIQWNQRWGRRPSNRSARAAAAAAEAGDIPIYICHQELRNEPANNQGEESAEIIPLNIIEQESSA
T1 sequence (O60896 24-148): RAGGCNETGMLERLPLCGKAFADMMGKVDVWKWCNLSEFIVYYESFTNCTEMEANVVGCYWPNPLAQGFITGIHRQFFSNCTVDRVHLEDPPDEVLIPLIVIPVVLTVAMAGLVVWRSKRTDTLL
Procedure: An initial set of 10 compounds was screened using a cyclic AMP (cyclic adenosinemonophosphate, cAMP) assay in amylin receptor subtype 3 expressing cells.
Cell Cultures. Amylin receptor subtypes (AMY3-HEK cells) stably expressed in human embryonic kidney (HEK293) cell-line were generated and characterized as described in a previous published article from our laboratory (Fu et al., J. Biol. Chem. 2012). The AMY3-HEK cells were grown in a 5% CO2 humidified incubator at 37° C. with DMEM, 10% FBS, and 100 μg/mL Zeocin medium.
Two cAMP detection methods were used to validate the findings.
ELISA (enzyme-linked immunosorbent assay). Cellular cAMP levels were measured using a parameter cyclic AMP assay kit (R&D Systems) according to the manufacturer's instructions. Briefly, AMY3-HEK cells were plated on 24-well plates overnight. These cells were then incubated with or without the assay compounds and hAmylin for 5 min. The cells were lysed with lysis buffer provided in the assay kit. Standard curves were plotted using the cAMP standards provided in the ELISA kits. All samples were analyzed in duplicate. The plate is measured at 450 nm. Data was plotted, and non-linear regression was fitted with four parameters using Prism software (GraphPad Software, La Jolla, Calif.).
In-cell Western blot technique. Intracellular cAMP signaling profiles were also determined using in-cell Western blot technique as previously described (Fu W, et al., J Biol Chem. 2012; 287(22):18820-30). AMY3-HEK cells were seeded at 10,000 cells/well in a 96-well plate (Nalge Nunc Intl., Rochester, N.Y.) in DMEM, 10% FBS, Zeocin medium and cultured overnight. […] For cyclic adenosinemonophosphate (cAMP) quantification, mouse monoclonal anti-cAMP (R&D Systems) was used as a primary antibody, and IRDye 800 goat anti mouse antibody (LI-COR) was used as a secondary antibody, whereas Sapphire700 and DRAQ5 were used for cell number normalization (LI-COR). […]

[10] = system: SK-N-SH (human) neuronal cells; assay: MTT cell death / cytotoxicity assay, SK-N-SH neuronal cells; format: cell-based; conditions: 10 μM Aβ1-42 for 24 hours
Procedure: as §1, §2

In the case of “AC253: peptide antagonist of the amylin receptor, SEQ ID NO: 1 (Ac-LGRLSQELHRLQTYPRTNTGSNTY)”, the “effect on Aβ- or human amylin-induced depression of long-term potentiation” value [1] is given as “can reverse impairment of Aβ- or human amylin-induced depression of long-term potentiation” and the “neuroprotection against Aβ toxicity” value [2] is given as “neuroprotective against Aβ toxicity”.

For “cyclized AC253: cyclized AC253 (CLGRLSQELHRLQTYPRTNTGSNTYC; also: cyclised, mode of ring closure not given here) [reference compound]”, the “area covered by plaques” value [3] was “decreases” and the “total Aβ plaques” value [3] was “decreases”.

With `COC(=O)N[C@H](C(=O)N1CCC[C@H]1c1ncc(-c2ccccc2)[nH]1)C(C)C` [AVI9030, methyl N-[(1S)-2-methyl-1-[[(2S)-2-(5-phenyl-1H-imidazol-2-yl)-1-pyrrolidinyl]carbonyl]propyl]carbamate, reference compound] the “effect on human amylin-induced depression/reduction of LTP” value [4] was “did not block human amylin-induced reduction of LTP”.

In the case of `Cc1nc(C)c(CCC(=O)N2CC(=O)Nc3ccccc32)c(=O)[nH]1` [Compound 23, 4-(3-(2,4-dimethyl-6-oxo-1,6-dihydropyrimidin-5-yl)propanoyl)-3,4-dihydroquinoxalin-2(1H)-one], the “potency rank in downstream phosphoERK response” value [5] is reported as “most potent of these four analogues”, the “effect on human amylin-induced depression/reduction of LTP” value [4] is reported as “restored the reduction in LTP by nanomolar dose of human amylim (h-Amylin) to control levels” and the “effect on amyloid beta (Aβ)-induced reduction in LTP” value ([4]; nanomolar dose of Aβ, compound 1 μM) is reported as “restored to control levels”. The “neuroprotective effects against Aβ toxicity, Live/Dead cell assay” value [6] was “confirmed neuroprotective effects”, the “effect on chronically depressed LTP in transgenic AD mice slices” value [7] was “restoration of LTP in AD mice to levels comparable to wild type mice” and the “neuroprotection against amyloid beta toxicity” value [8] was “neuroprotective against amyloid beta toxicity”. For the same compound, the “area covered by plaques” value [3] was “decreases”, the “total Aβ plaques” value [3] was “decreases” and the IC50 ([9]; 0.1 μM hAmylin) was 1 nM. The IC50 ([9]; 1 μM hAmylin) was 150 nM, the “potency rank in cAMP assay” value ([9]; among Compounds 22-25) was “most potent of these four analogues” and the “neuroprotection against amyloid beta toxicity” value [10] was “neuroprotective against amyloid beta toxicity”.
